# Measurements taken from patent US20250228865A1, “COMPOUNDS FOR ENHANCING READ THROUGH OF GENES CONTAINING PREMATURE TERMINATION CODONS AND METHODS FOR MAKING AND USING THE SAME” (Sanofi US Services Inc., priority 2022, published 2025).
# Tests used:
# CFTR G542X = experiment: Functional CFTR channel activity, TECC-24 electrophysiology, 16HBE cells (CFTR G542X readthrough); format: cell-based, human
# Method: (§1) 16HBE human bronchial epithelial cells were seeded onto Transwell 24-well filter inserts coated with human collagen type IV. Cells were seeded 7 days prior to functional testing at a density of 1.7×10^5 cells onto the “apical” chamber filter of the Transwell insert. Cells were grown as submerged cultures (200 μL apical/700 μL basolateral) in Minimal Essential Medium (MEM) containing 10% qualified Fetal Bovine Serum and 1% Penicillin/Streptomycin and incubated at 37° C. and 5% CO2. Growth media on cells was replenished with fresh media every 1-3 days prior to test agent treatment day. After 7 days in culture, the CFTR-mediated chloride (Cl^−) equivalent current (Ieq) of the 16HBE cells was recorded, which may typically form electrically tight epithelia with a transepithelial resistance (Rt) of 2000-6000 Ω·cm2 as described below. Forty-eight hours prior to electrophysiological measurements, fresh growth media containing the test agents was applied to both chambers separating filter bound epithelial monolayer.
# (§2) On the day of electrophysiology studies, electrodes of a “Multi-(24-channel) transepithelial current clamp amplifier” (MTECC-24 (TECC-24 for short), EP Devices, Belgium) were soaked in an assay buffer (see below for composition) for at least 2 hours using 24-well Transwell plates without inserts. Cell culture media was replaced in the Transwell assay plates with assay buffer (see below) and the plates were mounted onto a custom-built automated robotic assay platform (Yamaha RCX240S controller) with heated plate holders set at 37° C. for 60 min. After equilibration, transepithelial potential difference (PD) and resistance (Rt) was monitoredat ˜5 min intervals using the TECC-24 transepithelial current clamp. Electrode potential differences were monitored for each pair of Ag/AgCl voltage electrodes by taking voltage measurements from a control (“blank”) plate with matching buffer solutions and 16HBE cells that were not treated with any test agent. PD values for each electrode pair were subtracted from the blank plate from that of the test plates at each time point. Ieq was calculated from the corrected PD values and Rt using Ohm's law. Ieq values were slope corrected to account for measurement drift over time using the equation: Slope corrected value=calculated Ieq−((time x slope)+y-intercept) with the slope and y-intercept calculated from the data points captured during the initial baseline period and following addition of the CFTR inhibitor.
# (§3) The equivalent current (Ieq) traces associated with CFTR channel activation were plotted as baseline subtracted mean±standard deviation from 3-4 separate wells on the 24-well Transwell (n=3-4). There are 4 recording periods, with the first set of data points recorded baseline Ieq currents prior to sequential activation of available CFTR channels with forskolin (10 μM) and then in combination with potentiator VX-770/ivacaftor (1 μM). Recorded the last set of data points in the presence of CFTR inhibitor CFTRinh-172 (20 μM) to confirm that currents are mediated via activation of CFTR channels. The test agents and control/reference compounds were pre-diluted to 10-fold concentrations in assay buffer and added manually using a multi-channel pipette to both the basolateral and apical side of the membrane (test plates only). Employed CFTR-mediated changes in Ieq, (i.e. forskolin/VX-770 activated currents) to measure functional CFTR surface expression or treatment-related functional rescue of mutant CFTR.
# (§4) The magnitude of test agent mediated enhancement of functional CFTR currents was calculated by comparing forskolin/VX-770 stimulated Ieq relative to baseline/CFTRinh-172 Ieq following 48 hour pretreatment with test agent(s) and normalizing to the forskolin/VX-770 stimulated Ieq determined following 48 hour pretreatment with a maximally effective concentration a reference control aminoglycoside agent (typically 110 μM G418). […]
# CFTR R1162X = experiment: Functional CFTR channel activity, TECC-24 electrophysiology, 16HBE cells (CFTR R1162X readthrough); format: cell-based, human
# Method: as §1, §2, §3, §4
# [1] = no RTM, eRF3 modulator (CC-90009) 1 uM, Paramomycin 2000 uM
# [2] = RTM 1 uM, eRF3 modulator (CC-90009) 1 uM, ELX-02 100 uM
# [3] = RTM 1 uM, eRF3 modulator (CC-90009) 1 uM, G418 10 uM
# [4] = RTM conc. —, eRF3 modulator (CC-90009) 1 uM, ELX-02 100 uM
# [5] = RTM 1 uM, no eRF3 modulator, ELX-02 100 uM
smiles,measurement,setting,value
"NC[C@@H]1O[C@H](O[C@H]2[C@@H](O)[C@H](O[C@@H]3[C@@H](O)[C@H](N)C[C@H](N)[C@H]3O[C@H]3O[C@H](CO)[C@@H](O)[C@H](O)[C@H]3N)O[C@@H]2CO)[C@H](N)[C@@H](O)[C@@H]1O [Paramomycin, paramomycin, reference compound]",Currents (% of 110 μM G418 (Max effect)),CFTR G542X; [1],65 % of 110 μM G418 (Max effect)
same,Currents (% of 110 μM G418 (Max effect)),CFTR R1162X; [1],55 % of 110 μM G418 (Max effect)
OCc1ccn(-c2ncc(OCc3c(Cl)cccc3Cl)cn2)n1 [drawing 803],Currents (% of 110 μM G418 (Max effect)),CFTR R1162X; [2],300 % of 110 μM G418 (Max effect)
Cc1cccc(C(F)(F)F)c1COc1ccc(-c2nc(CO)n[nH]2)cc1 [drawing 806],Currents (% of 110 μM G418 (Max effect)),CFTR R1162X; [2],269 % of 110 μM G418 (Max effect)
Cc1cccc(C(F)(F)F)c1COc1ccc(N2CC(CO)OC2=O)cc1 (centres unmarked) [drawing 840],Currents (% of 110 μM G418 (Max effect)),CFTR G542X; [3],290 % of 110 μM G418 (Max effect)
O=C1N[C@H](CO)CN1c1ccc(OCc2c(Cl)cccc2Cl)cn1 [drawing 808],Currents (% of 110 μM G418 (Max effect)),CFTR R1162X; [4],63 % of 110 μM G418 (Max effect)
OCc1cn(-c2ncc(OCc3c(Cl)cccc3Cl)cn2)cn1 [drawing 797],Currents (% of 110 μM G418 (Max effect)),"CFTR R1162X; RTM 0.5 uM, no eRF3 modulator, G418 10 uM",64 % of 110 μM G418 (Max effect)
Cc1cccc(C(F)(F)F)c1COc1ccc(-c2nc(CO)n[nH]2)cc1 [drawing 804],Currents (% of 110 μM G418 (Max effect)),CFTR R1162X; [5],106 % of 110 μM G418 (Max effect)
O=C1N[C@H](CO)CN1c1ccc(OCc2c(Cl)cccc2Cl)cn1 [drawing 833],Currents (% of 110 μM G418 (Max effect)),CFTR G542X; [2],293 % of 110 μM G418 (Max effect)
Cc1cccc(C(F)(F)F)c1COc1ccc(-c2nc(CO)n[nH]2)cc1 [drawing 828],Currents (% of 110 μM G418 (Max effect)),CFTR G542X; [5],109 % of 110 μM G418 (Max effect)
OCc1cn(-c2ncc(OCc3c(Cl)cccc3Cl)cn2)cn1 [drawing 813],Currents (% of 110 μM G418 (Max effect)),"CFTR R1162X; RTM 0.5 uM, no eRF3 modulator, Paramomycin 2000 uM",7 % of 110 μM G418 (Max effect)
OCc1ncn(-c2ncc(OCc3c(Cl)cccc3C(F)(F)F)cn2)n1 [drawing 834],Currents (% of 110 μM G418 (Max effect)),"CFTR G542X; RTM 3 uM, no eRF3 modulator, ELX-02 100 uM",111 % of 110 μM G418 (Max effect)
O=C1N[C@H](CO)CN1c1ccc(OCc2c(Cl)cccc2Cl)cn1 [drawing 809],Currents (% of 110 μM G418 (Max effect)),CFTR R1162X; [2],266 % of 110 μM G418 (Max effect)
O=C1N[C@H](CO)CN1c1ccc(OCc2c(Cl)cccc2Cl)cn1 [drawing 807],Currents (% of 110 μM G418 (Max effect)),CFTR R1162X; [5],70 % of 110 μM G418 (Max effect)
Cc1cccc(C(F)(F)F)c1COc1ccc(N2CC(CO)OC2=O)cc1 (centres unmarked) [drawing 816],Currents (% of 110 μM G418 (Max effect)),CFTR R1162X; [3],423 % of 110 μM G418 (Max effect)
Cc1cccc(C(F)(F)F)c1COc1ccc(-c2nc(CO)n[nH]2)cc1 [drawing 829],Currents (% of 110 μM G418 (Max effect)),CFTR G542X; [4],83 % of 110 μM G418 (Max effect)
OCc1cn(-c2ncc(OCc3c(Cl)cccc3Cl)cn2)cn1 [drawing 799],Currents (% of 110 μM G418 (Max effect)),"CFTR R1162X; RTM 0.5 uM, no eRF3 modulator, ELX-02 100 uM",51 % of 110 μM G418 (Max effect)
OCc1ncn(-c2ncc(OCc3c(Cl)cccc3C(F)(F)F)cn2)n1 [drawing 812],Currents (% of 110 μM G418 (Max effect)),"CFTR R1162X; RTM 3 uM, eRF3 modulator (CC-90009) 1 uM, ELX-02 100 uM",288 % of 110 μM G418 (Max effect)
OCc1ccn(-c2ncc(OCc3c(Cl)cccc3Cl)cn2)n1 [drawing 826],Currents (% of 110 μM G418 (Max effect)),CFTR G542X; [4],83 % of 110 μM G418 (Max effect)
OCc1ccn(-c2ncc(OCc3c(Cl)cccc3Cl)cn2)n1 [drawing 801],Currents (% of 110 μM G418 (Max effect)),CFTR R1162X; [5],102 % of 110 μM G418 (Max effect)
OCc1ccn(-c2ncc(OCc3c(Cl)cccc3Cl)cn2)n1 [drawing 827],Currents (% of 110 μM G418 (Max effect)),CFTR G542X; [2],278 % of 110 μM G418 (Max effect)
OCc1ccn(-c2ncc(OCc3c(Cl)cccc3Cl)cn2)n1 [drawing 825],Currents (% of 110 μM G418 (Max effect)),CFTR G542X; [5],94 % of 110 μM G418 (Max effect)
Cc1cccc(C(F)(F)F)c1COc1ccc(-c2nc(CO)n[nH]2)cc1 [drawing 830],Currents (% of 110 μM G418 (Max effect)),CFTR G542X; [2],263 % of 110 μM G418 (Max effect)
